Test results reported in ChEMBL document CHEMBL4715821, “Discovery of 4-ethoxy-7H-pyrrolo[2,3-d]pyrimidin-2-amines as potent, selective and orally bioavailable LRRK2 inhibitors” (Bioorg Med Chem Lett, 2018).

What was measured:
[1] = biological target: Ribosomal protein S6 kinase beta-2 (Homo sapiens) (UniProt Q9UBS0); assay: Inhibition of RPS6KB2 (unknown origin) assessed as residual activity at 1 uM by Kinomescan method relative to control
[2] = In vivo inhibition of LRRK2 in Han-Wistar rat assessed as reduction in Ser935 phosphorylation in spleen at 10 to 100 mg/kg, po by Western blot analysis; assay type: functional; set-up: scale not given: the % may be the effect or the level left; settings: dose 10-100 mg/kg
[3] = biological target: Serine/threonine-protein kinase Nek6 (Homo sapiens) (UniProt Q9HC98); assay: Inhibition of wild-type human full length NEK6 (M8 to T313 residues) expressed in bacterial expression system assessed as residual activity at 1 uM by Kinomescan method relative to control
[4] = biological target: Tyrosine-protein kinase HCK (Homo sapiens) (UniProt P08631); assay: Inhibition of wild-type human full length HCK (M22 to P526 residues) expressed in bacterial expression system assessed as residual activity at 1 uM by Kinomescan method relative to control
[5] = biological target: Inhibitor of nuclear factor kappa-B kinase subunit alpha (Homo sapiens) (UniProt O15111); assay: Inhibition of wild-type human full length IKK-alpha (M1 to E745 residues) expressed in mammalian expression system assessed as residual activity at 1 uM by Kinomescan method relative to control
[6] = biological target: Calcium/calmodulin-dependent protein kinase kinase 1 (Homo sapiens) (UniProt Q8N5S9); assay: Inhibition of wild-type human partial length CAMKK1 (R65 to E414 residues) expressed in bacterial expression system assessed as residual activity at 1 uM by Kinomescan method relative to control
[7] = biological target: SRSF protein kinase 1 (Homo sapiens) (UniProt Q96SB4); assay: Inhibition of wild-type human full length SRPK1 (M1 to S655 residues) expressed in bacterial expression system assessed as residual activity at 1 uM by Kinomescan method relative to control
[8] = biological target: G protein-coupled receptor kinase 4 (Homo sapiens) (UniProt P32298); assay: Inhibition of wild type human full length GRK4 (M1 to C578 residues) expressed in bacterial expression system assessed as residual activity at 1 uM by Kinomescan method relative to control
[9] = Unbound fraction in mouse brain; assay type: ADME, tissue-based
[10] = biological target: Solute carrier organic anion transporter family member 1B1 (Homo sapiens, UniProt Q9Y6L6); assay: Inhibition of human OATP1B1
[11] = biological target: Serine/threonine-protein kinase 38-like (Homo sapiens) (UniProt Q9Y2H1); assay: Inhibition of wild-type human partial length NDR2 (N34 to E447 residues) expressed in bacterial expression system assessed as residual activity at 1 uM by Kinomescan method relative to control
[12] = biological target: Phosphorylase b kinase gamma catalytic chain, skeletal muscle/heart isoform (Homo sapiens) (UniProt Q16816); assay: Inhibition of wild-type human full length PHKG1 (M1 to Y387 residues) expressed in bacterial expression system assessed as residual activity at 1 uM by Kinomescan method relative to control
[13] = biological target: Ephrin type-A receptor 5 (Homo sapiens) (UniProt P54756); assay: Inhibition of wild-type human partial length EPHA5 (T627 to V930 residues) expressed in bacterial expression system assessed as residual activity at 1 uM by Kinomescan method relative to control
[14] = biological target: Serine/threonine-protein kinase STK11 (Homo sapiens) (UniProt Q15831); assay: Inhibition of wild-type human full length LKB1 (M1 to Q433 residues) expressed in bacterial expression system assessed as residual activity at 1 uM by Kinomescan method relative to control
Homo sapiens = species: Homo sapiens; assay: Inhibition of PKA (unknown origin) assessed as residual activity at 1 uM by Kinomescan method relative to control
[15] = biological target: Fibroblast growth factor receptor 1 (Homo sapiens) (UniProt P11362); assay: Inhibition of wild-type human partial length FGFR1 (P357 to V669 residues) expressed in bacterial expression system assessed as residual activity at 1 uM by Kinomescan method relative to control
[16] = biological target: Dual specificity mitogen-activated protein kinase kinase 3 (Homo sapiens) (UniProt P46734); assay: Inhibition of wild-type human full length MEK3 (M1 to S318 residues) expressed in mammalian expression system assessed as residual activity at 1 uM by Kinomescan method relative to control
[17] = biological target: Serine/threonine-protein kinase NLK (Homo sapiens) (UniProt Q9UBE8); assay: Inhibition of wild-type human full length NLK (M13 to E527 residues) expressed in bacterial expression system assessed as residual activity at 1 uM by Kinomescan method relative to control
[18] = biological target: Serine/threonine-protein kinase D1 (Homo sapiens) (UniProt Q15139); assay: Inhibition of wild-type human partial length PRKD1 (G551 to E870 residues) expressed in bacterial expression system assessed as residual activity at 1 uM by Kinomescan method relative to control
[19] = biological target: Ephrin type-A receptor 3 (Homo sapiens) (UniProt P29320); assay: Inhibition of wild-type human partial length EPHA3 (D604 to K889 residues) expressed in bacterial expression system assessed as residual activity at 1 uM by Kinomescan method relative to control
[20] = biological target: Calcium/calmodulin-dependent protein kinase type II subunit beta (Homo sapiens) (UniProt Q13554); assay: Inhibition of wild-type human partial length CAMK2B (M1 to Q380 residues) expressed in bacterial expression system assessed as residual activity at 1 uM by Kinomescan method relative to control
[21] = biological target: Serine/threonine-protein kinase PAK 1 (Homo sapiens) (UniProt Q13153); assay: Inhibition of wild-type human partial length PAK1 (S149 to H545 residues) expressed in bacterial expression system assessed as residual activity at 1 uM by Kinomescan method relative to control
[22] = biological target: Mitogen-activated protein kinase kinase kinase 20 (Homo sapiens) (UniProt Q9NYL2); assay: Inhibition of wild-type human partial length ZAK (M1 to L331 residues) expressed in bacterial expression system assessed as residual activity at 1 uM by Kinomescan method relative to control
[23] = biological target: Dual specificity protein kinase CLK2 (Homo sapiens) (UniProt P49760); assay: Inhibition of wild-type human partial length CLK2 (D144 to R498 residues) expressed in bacterial expression system assessed as residual activity at 1 uM by Kinomescan method relative to control
[24] = biological target: Cyclin-dependent kinase 1/cyclin B1 (Homo sapiens) (UniProt P06493+P14635); assay: Inhibition of wild-type human full length CDK1 (M1 to M297 residues)/Cyclin B expressed in mammalian expression system assessed as residual activity at 1 uM by Kinomescan method relative to control

CCOc1nc(Nc2ccc(C(=O)N3CCOCC3)cc2OC)nc2[nH]ccc12
Activity [1]: 98.9%
Activity [2]: 100%
Activity [3]: 96.8%
Activity [4]: 87.2%
Activity [5]: 85.3%
Activity [6]: 101%
Activity [7]: 87.4%
Activity [8]: 84.6%
fraction unbound [9]: 0.01
IC50 [10]: 12.6 µM
Activity [11]: 96.8%
Activity [12]: 34.3%
Activity [13]: 103%
Activity [14]: 99%
Activity (Homo sapiens): 103%
Activity [15]: 90.7%
Activity [16]: 134%
Activity [17]: 94.5%
Activity [18]: 46.9%
Activity [19]: 99.6%
Activity [20]: 92.6%
Activity [21]: 95.3%
Activity [22]: 97.2%
Activity [23]: 28.3%
Activity [24]: 92.2%
